Results reported in patent EP0333356A2, “Hirudin peptides” (BIOGEN, INC., priority 1988, dated 1989).

Tests used:
bovine plasma thrombin = target: T1, bovine plasma thrombin (Bos taurus, UniProt P00735); assay: thrombin-catalyzed hydrolysis of tosyl-Gly-Pro-Arg-p-nitroanilide (Chromozym TH); type: biochemical; settings: 4.2 x 10⁻⁶ M to 2.1 x 10⁻⁷ M peptide
T1 construct: bovine plasma thrombin, Calbiochem, Behring Diagnostics, La Jolla, CA; purchased Calbiochem, Behring Diagnostics, La Jolla, CA; host or cells: bovine plasma
Description: We analyzed the hirudin peptides of this invention for inhibition of thrombin-catalyzed hydrolysis of the tripeptidyl p-nitroanilide substrate tosyl-Gly-Pro-Arg-p-nitroanilide (Chromozym TH, Boehringer-Mannheim, Indianapolis, In.) spectrophotometrically at 420 nm on a Cary 219 double-beam spectrophotometer. Reactions were prepared by mixing 10 µl of thrombin solution (bovine plasma thrombin, Calbiochem, Behring Diagnostics, La Jolla, CA, 0.1 mg/ml in 0.1 M Tris-HCl, pH 7.4, 0.15 M NaCl) with 1.0 ml of 0.1 M Tris-HCl, pH 7.4, 0.15 M NaCl buffer. We then added 25 µl of substrate solution (4 mg/ml tosyl-Gly-Pro-Arg-p-nitroanilide in the above buffer) and varying amounts of hirudin₄₅₋₆₄ (as prepared in Example 4) from a 1.0 mg/ml stock solution to a final fixed volume of 1.035 ml, with final concentrations of thrombin and substrate of 2.8 x 10⁻⁸ M and 1.4 x 10⁻⁴ M, respectively.

thrombin = target: T2, thrombin (Homo sapiens, UniProt P00734); assay: activated partial thromboplastin time (APTT) assay of pooled normal human plasma; type: biochemical; settings: result in words
T2 construct: pooled, normal human plasma (George King Biomedical, Inc., Overland Park, Kansas); tissue George King Biomedical, Inc; host or cells: pooled normal human plasma
Description: Anticoagulant activity was determined by assaying APTT of pooled, normal human plasma (George King Biomedical, Inc., Overland Park, Kansas) (diluted 4:1, v/v, plasma:water) with a Coag-A-Mate 2001 instrument (General Diagnostics, Inc.. Morris Plains, New Jersey). Specifically, diluted plasma was mixed with stock solutions of hirudin peptides at concentrations ranging from 750 µg/ml in water, for non-sulfated hirudin peptides, to 35 µg/ml in water for sulfated hirudin peptides. The plasma and hirudin peptides were mixed to a final volume of 125 µl prior to each APTT determination.
We began the APTT assay by adding 92 µl of a crude thromboplastin suspension (General Diagnostics) and 100 µl of 0.3 M calcium chloride reagent to each well of a Coag-A-Mate dish (General Diagnostics) per APTT determination, to a final volume of assay mixture per well of 317 µl. The calcium chloride was prepared fresh prior to each assay. Activation times were constant at 180 sec.

Row | Molecule | inhibitory effect on thrombin-catalyzed hydrolysis of the artificial substrate (bovine plasma thrombin) | increase in clotting time (APTT) (thrombin) | increase in clotting time (APTT) (thrombin; listed as hirudin₅₃₋₆₂)
1 | CC[C@H](C)[C@H](NC(=O)[C@H](CCC(=O)O)NC(=O)[C@H](CCC(=O)O)NC(=O)[C@H](Cc1ccccc1)NC(=O)[C@H](CC(=O)O)NC(=O)CNC(=O)[C@H](CC(N)=O)NC(=O)[C@H](CC(N)=O)NC(=O)[C@H](Cc1c[nH]cn1)NC(=O)[C@H](CO)NC(=O)[C@H](CCC(=O)O)NC(=O)[C@@H]1CCCN1C(=O)[C@H](CC(N)=O)NC(=O)[C@@H]1CCCN1C(=O)[C@@H](N)[C@@H](C)O)C(=O)N1CCC[C@H]1C(=O)N[C@@H](CCC(=O)O)C(=O)N[C@@H](CCC(=O)O)C(=O)N[C@@H](Cc1ccc(O)cc1)C(=O)N[C@@H](CC(C)C)C(=O)O [hirudin₄₅₋₆₄] | no measurable inhibitory effect |  | 
2 | H-NGDFEEIPEE-OH [des(Tyr-Leu) hirudin₅₃₋₆₂] |  | no comparative increase in clotting time | no reasonable inhibitory activity
